Consider two compounds from patent US20060110332A1, “Agent for medicamentous treatment of acute and chronic pain” (Max-Delbruck-Centrum Fur Molekulare Medizin, priority 2002, published 2006).

The test system of one data set is AM mechanoreceptors. As to the kind of experiment: Skin-nerve preparation (saphenous nerve), AM mechanoreceptors. More on the design: species or system mice. To be noted: 3 μM mibefradil in the bath solution. Here is the method: (§1) The use of the skin-nerve preparation, which the present invention is based on, allows for the electrophysiological analysis of the different neurofibre types which innervate the skin (Koltzenburg et al., 1997, see above). The saphenous nerve and the region of the skin that it innervates are prepared from freshly killed mice and are mounted in a bath of physiological buffer. After mechanical or electrical stimulation of the skin, the nerve signals can be received directly from the nerve. For determining the effective concentration, tests were carried out with different concentrations of mibefradil in the bath solution. The EC50 of mibefradil on cells is between 0.1 and 1 μM. […] The unspecific blockade at high concentrations may be due to the fact that mibefradil, at high concentrations, has a very unspecific effect on other ubiquitously expressed calcium channels. Such blocking is lost at lower concentrations. The blocking of some AM mechanoreceptors also at low concentrations of mibefradil could have two reasons. The first possibility is that AM mechanoreceptors, too, express CaV3.2. This, however, is not very likely based on the findings obtained by the in-situ hybridisation within the framework of the present invention. It may rather be assumed that a different isotype, i.e. CaV3.3 is expressed in AM mechanoreceptors. […]

The subject of data set [1] is cutaneous mechanotransduction. As to the kind of experiment: Skin-nerve preparation (saphenous nerve), mechanical sensitivity of the skin. More on the design: species or system mice. The method, then: The use of the skin-nerve preparation, which the present invention is based on, allows for the electrophysiological analysis of the different neurofibre types which innervate the skin (Koltzenburg et al., 1997, see above). The saphenous nerve and the region of the skin that it innervates are prepared from freshly killed mice and are mounted in a bath of physiological buffer. After mechanical or electrical stimulation of the skin, the nerve signals can be received directly from the nerve. For determining the effective concentration, tests were carried out with different concentrations of mibefradil in the bath solution. The EC50 of mibefradil on cells is between 0.1 and 1 μM. […] The unspecific blockade at high concentrations may be due to the fact that mibefradil, at high concentrations, has a very unspecific effect on other ubiquitously expressed calcium channels. Such blocking is lost at lower concentrations. The blocking of some AM mechanoreceptors also at low concentrations of mibefradil could have two reasons. The first possibility is that AM mechanoreceptors, too, express CaV3.2. This, however, is not very likely based on the findings obtained by the in-situ hybridisation within the framework of the present invention. It may rather be assumed that a different isotype, i.e. CaV3.3 is expressed in AM mechanoreceptors. It was not possible to detect CaV3.3 in in-situ hybridisation experiments in spinal ganglia, but other groups reported the expression of this calcium channel in medium-size cells. […] To sum up, it is concluded that the calcium channel CaV3.2 in spinal ganglia specifically expresses in D-hair mechanoreceptors and is therefore indispensable for its function. The discovery that the voltage-dependent calcium channels are involved in the transduction of mechanical stimuli by nociceptive and non-nociceptive neurons is new. Due to their physiological properties together with their specific localisation on the site of the mechanotransduction in the periphery, the calcium channels are ideal targets for pain therapy, which the invention is based on.

The test system of a further data set is D-hair mechanoreceptors. As to the kind of experiment: Skin-nerve preparation (saphenous nerve), D-hair mechanoreceptors. The arrangement: species or system mice. Particulars: 3 μM mibefradil in the bath solution. Here is the method:
as §1

In a further data set the target is CaV3.1 (Rattus norvegicus, UniProt O54898). Particulars: compared with CaV3.2; cited from earlier work.
In the next data set the test system is CaV3.3. Particulars: compared with CaV3.2, cited from earlier work.
Another data set concerns T-type calcium channels. Particulars: cited from earlier work.
A further data set deals with L-type calcium channels. To be noted: cited from earlier work.
For data set [2] the following is noted: reason for removal from the market; cited from earlier work.
The target of another data set is CaV3.2 (Homo sapiens, UniProt O95180). To be noted: cited from earlier work.
In a further data set the test system is living tissue. Particulars: cited from earlier work.

Structures are written as SMILES. “Also recorded” adds a separate entry of the source. Like-named read-outs stand apart in the source and are kept apart here.

Usually EC50 stands for the concentration that produces a half-maximal response.

CaV3.2, sequence (O95180 whole entry): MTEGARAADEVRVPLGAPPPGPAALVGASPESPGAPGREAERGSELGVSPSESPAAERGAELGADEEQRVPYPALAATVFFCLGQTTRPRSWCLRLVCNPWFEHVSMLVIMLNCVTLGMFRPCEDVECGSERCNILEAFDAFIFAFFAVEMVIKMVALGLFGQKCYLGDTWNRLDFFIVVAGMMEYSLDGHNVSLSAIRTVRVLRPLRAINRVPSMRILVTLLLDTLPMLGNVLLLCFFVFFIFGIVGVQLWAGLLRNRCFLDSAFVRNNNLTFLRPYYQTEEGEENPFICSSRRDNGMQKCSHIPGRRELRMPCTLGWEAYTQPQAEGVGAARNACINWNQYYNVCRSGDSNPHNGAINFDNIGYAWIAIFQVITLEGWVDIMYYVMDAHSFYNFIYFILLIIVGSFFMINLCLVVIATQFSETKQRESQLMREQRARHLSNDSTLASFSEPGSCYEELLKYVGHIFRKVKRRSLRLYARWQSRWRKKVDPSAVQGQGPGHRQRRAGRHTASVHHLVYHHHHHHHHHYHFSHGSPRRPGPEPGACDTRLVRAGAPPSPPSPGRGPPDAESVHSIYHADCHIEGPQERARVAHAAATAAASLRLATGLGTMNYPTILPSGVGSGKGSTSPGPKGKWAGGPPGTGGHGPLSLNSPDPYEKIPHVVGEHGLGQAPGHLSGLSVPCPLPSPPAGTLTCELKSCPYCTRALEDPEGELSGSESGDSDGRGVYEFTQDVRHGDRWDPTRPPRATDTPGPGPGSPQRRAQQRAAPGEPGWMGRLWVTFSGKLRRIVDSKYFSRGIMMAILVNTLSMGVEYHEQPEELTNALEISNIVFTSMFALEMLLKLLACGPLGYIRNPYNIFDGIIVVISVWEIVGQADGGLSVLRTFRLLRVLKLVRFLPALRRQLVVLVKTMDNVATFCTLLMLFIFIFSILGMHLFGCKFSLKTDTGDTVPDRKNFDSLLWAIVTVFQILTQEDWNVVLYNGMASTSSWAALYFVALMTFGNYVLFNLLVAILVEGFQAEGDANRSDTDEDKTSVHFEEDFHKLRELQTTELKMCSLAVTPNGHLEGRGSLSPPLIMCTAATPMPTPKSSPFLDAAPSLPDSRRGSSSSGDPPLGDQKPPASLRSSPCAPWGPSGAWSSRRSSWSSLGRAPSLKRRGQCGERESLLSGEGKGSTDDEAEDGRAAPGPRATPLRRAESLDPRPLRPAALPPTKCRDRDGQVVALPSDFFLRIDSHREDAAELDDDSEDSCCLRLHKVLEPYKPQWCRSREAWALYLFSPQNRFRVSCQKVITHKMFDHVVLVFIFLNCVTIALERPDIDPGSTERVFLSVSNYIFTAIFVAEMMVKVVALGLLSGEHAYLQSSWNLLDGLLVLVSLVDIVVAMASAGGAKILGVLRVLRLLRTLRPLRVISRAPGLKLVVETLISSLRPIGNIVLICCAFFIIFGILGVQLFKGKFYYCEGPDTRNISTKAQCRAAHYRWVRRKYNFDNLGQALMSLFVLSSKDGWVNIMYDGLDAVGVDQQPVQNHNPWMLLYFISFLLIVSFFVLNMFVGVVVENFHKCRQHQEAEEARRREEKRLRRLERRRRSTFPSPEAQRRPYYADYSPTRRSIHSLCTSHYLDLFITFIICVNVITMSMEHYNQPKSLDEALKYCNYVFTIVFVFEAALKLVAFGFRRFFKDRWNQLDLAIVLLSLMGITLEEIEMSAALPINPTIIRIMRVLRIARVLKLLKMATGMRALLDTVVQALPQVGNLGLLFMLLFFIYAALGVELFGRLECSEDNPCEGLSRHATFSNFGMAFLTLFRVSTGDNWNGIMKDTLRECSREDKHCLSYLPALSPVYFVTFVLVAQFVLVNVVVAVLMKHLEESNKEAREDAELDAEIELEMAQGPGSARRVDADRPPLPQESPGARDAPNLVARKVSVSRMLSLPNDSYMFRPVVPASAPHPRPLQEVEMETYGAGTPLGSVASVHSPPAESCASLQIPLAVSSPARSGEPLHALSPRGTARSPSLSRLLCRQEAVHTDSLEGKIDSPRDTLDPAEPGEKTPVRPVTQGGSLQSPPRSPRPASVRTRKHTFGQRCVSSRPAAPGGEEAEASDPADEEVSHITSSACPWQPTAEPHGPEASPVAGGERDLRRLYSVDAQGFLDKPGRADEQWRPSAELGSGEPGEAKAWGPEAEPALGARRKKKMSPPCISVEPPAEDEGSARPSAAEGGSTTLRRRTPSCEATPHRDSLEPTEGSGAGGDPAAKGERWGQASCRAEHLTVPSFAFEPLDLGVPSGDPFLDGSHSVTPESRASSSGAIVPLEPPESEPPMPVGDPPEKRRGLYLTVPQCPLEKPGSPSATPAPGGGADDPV
CaV3.1, sequence (O54898 whole entry): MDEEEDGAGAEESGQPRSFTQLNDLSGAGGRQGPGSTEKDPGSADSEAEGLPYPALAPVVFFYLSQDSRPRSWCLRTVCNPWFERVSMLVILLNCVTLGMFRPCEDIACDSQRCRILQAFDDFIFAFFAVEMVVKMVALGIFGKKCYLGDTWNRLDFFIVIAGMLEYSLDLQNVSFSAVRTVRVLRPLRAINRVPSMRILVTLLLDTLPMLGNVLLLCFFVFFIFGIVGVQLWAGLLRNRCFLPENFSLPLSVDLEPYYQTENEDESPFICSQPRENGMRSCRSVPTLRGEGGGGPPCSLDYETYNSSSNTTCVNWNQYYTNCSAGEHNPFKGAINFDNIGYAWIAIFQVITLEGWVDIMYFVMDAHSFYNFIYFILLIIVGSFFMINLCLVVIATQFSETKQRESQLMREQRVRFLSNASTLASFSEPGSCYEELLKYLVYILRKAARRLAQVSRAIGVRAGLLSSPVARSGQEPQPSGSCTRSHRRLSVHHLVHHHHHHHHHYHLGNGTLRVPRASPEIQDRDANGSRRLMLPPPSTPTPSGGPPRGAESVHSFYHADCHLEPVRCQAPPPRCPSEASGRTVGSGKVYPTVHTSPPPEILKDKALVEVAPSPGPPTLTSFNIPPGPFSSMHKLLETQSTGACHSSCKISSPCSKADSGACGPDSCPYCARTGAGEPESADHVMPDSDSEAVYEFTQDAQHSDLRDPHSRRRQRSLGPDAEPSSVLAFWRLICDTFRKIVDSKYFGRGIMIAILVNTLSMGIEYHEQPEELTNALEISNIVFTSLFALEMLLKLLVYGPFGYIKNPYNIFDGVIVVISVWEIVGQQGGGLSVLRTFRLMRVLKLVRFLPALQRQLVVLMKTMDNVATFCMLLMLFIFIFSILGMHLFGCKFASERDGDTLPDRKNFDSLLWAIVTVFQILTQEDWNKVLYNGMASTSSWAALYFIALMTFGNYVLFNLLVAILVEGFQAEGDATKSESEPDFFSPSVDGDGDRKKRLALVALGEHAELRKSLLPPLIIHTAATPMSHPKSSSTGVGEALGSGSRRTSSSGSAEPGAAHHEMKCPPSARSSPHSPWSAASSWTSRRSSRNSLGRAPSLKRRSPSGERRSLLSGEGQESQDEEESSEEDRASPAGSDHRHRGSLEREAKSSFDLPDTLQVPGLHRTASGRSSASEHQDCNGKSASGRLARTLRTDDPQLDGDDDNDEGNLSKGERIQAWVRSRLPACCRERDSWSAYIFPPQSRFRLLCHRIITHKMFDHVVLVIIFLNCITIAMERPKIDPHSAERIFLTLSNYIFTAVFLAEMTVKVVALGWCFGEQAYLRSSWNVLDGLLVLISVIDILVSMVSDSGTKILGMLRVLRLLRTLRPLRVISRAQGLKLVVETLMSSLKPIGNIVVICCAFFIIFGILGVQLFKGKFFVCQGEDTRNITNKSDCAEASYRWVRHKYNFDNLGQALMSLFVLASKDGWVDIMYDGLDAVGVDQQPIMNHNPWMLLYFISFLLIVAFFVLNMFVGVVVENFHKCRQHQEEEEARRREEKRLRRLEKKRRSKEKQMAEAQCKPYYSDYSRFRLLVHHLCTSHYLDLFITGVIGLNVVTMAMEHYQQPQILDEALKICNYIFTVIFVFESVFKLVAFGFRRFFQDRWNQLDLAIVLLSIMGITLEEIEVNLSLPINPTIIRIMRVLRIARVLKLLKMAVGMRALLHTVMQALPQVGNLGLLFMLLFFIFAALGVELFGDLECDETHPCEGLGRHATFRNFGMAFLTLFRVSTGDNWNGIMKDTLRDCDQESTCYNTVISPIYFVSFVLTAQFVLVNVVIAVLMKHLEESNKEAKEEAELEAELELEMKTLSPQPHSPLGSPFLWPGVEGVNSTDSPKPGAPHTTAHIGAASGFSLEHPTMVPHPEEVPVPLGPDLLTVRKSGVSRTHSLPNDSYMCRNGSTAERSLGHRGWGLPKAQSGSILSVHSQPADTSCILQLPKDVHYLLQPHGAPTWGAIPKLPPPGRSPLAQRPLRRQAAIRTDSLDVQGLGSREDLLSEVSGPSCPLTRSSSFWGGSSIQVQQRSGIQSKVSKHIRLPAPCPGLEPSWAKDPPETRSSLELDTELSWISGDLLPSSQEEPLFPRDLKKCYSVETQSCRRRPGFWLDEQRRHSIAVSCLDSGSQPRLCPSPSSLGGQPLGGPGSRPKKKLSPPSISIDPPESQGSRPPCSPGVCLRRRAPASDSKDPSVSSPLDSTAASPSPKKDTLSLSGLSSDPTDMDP

As for `COCC(=O)O[C@]1(CCN(C)CCCc2nc3ccccc3[nH]2)CCc2cc(F)ccc2[C@@H]1C(C)C` [mibefradil], the “inhibition of AM mechanoreceptors” value with AM mechanoreceptors is “in part, also AM mechanoreceptors are specifically inhibited”. For the same compound, in [1] (higher concentrations of mibefradil), the blocking of mechanotransduction entry is on record as “complex blocking of other mechanoreceptors; also recorded: blocks not only the D-hair mechanotransduction but also the entire mechanotransduction”. The “inhibition of cutaneous mechanotransduction” value in data set [1] (low concentrations (25 μM or less)) was “virtually inhibits the entire cutaneous mechanotransduction”. The “blocking of the mechanical sensitivity” value in [1] (more than 25 μM mibefradil in the bath solution) is “almost complete and unspecific blocking of the mechanical sensitivity”. Further, the “inhibition of D-hair mechanoreceptors” value in the data set on D-hair mechanoreceptors is “specifically inhibited”. On CaV3.1, the “effect on T-type isotype CaV3.1” value is “almost identical effect”. The “effect / semi-effective concentration on CaV3.3” value in the data set with CaV3.3 is reported as “almost identical”; in the data set with CaV3.3 (listed as Mibefradil), “almost identical effect”. For the same compound, the “selectivity for T-type calcium channels” value with T-type calcium channels was “relatively high selectivity for T-type calcium channels”. For the same compound, in the data set on L-type calcium channels, the “concentration blocking L-type relative to that necessary for T-type blocking” value is listed as “about 10 fold”. Moreover, in data set [2], the “interaction with other medicaments” value is listed as “severe interaction with other medicaments”.

As for `[Ni]` [nickel], on CaV3.2 (CaV3.2 versus other T-type isotypes), the “EC50 on CaV3.2 relative to the other isotypes” value is 70 times. In addition, on CaV3.2 (read-out: EC50 on CaV3.2), the 50% effective concentration (EC50) was around 10 µM. The cytotoxicity entry in the data set on living tissue is “cytotoxic”.
